In one series the test system is B. subtilis. In kind it is cell-based. Particulars: 18 h. How it is done:
(§1) In order to measure antimicrobial activity of the peptoids, Gram-positive B. subtilis or Gram-negative E. coli strain DH5α was treated with Peptoid NOS. 1, 18 to 23, and the peptide Pexiganan, and minimum inhibitory concentrations were measured. Peptoid NOS. 1 and 2, and the peptide Pexiganan are already known antimicrobial peptoids and peptides, and were used for the purpose of making a comparison with novel peptoids in terms of antimicrobial activity.
(§2) Specifically, B. subtilis or E. coli DHS a was inoculated into LB liquid medium, and cultured at a temperature of 37° C. for 18 hours. Thereafter, the bacteria were diluted with LB medium so that each bacterial number was 2×10^5 colony-forming units (CFU) per 1 mL, and dispensed into 96-well microtiter plates at 100 μL each. The peptoid, which is 2-fold serially diluted using sterile water, was added to each well at 100 μL each. The plates were incubated at a temperature of 37° C. for 18 hours.
(§3) Thereafter, absorbance was measured at a wavelength of 600 nm using a microplate reader (Bio-Rad). The lowest peptoid concentration that completely suppresses growth of microorganisms was measured by a minimum inhibitory concentration (MIC), and the measurement results are shown in Table 12 below. Each of the minimum inhibitory concentration values was calculated as an average value of numerical values obtained through three independent experiments.

In the next series the test system is E. coli strain DH5α. Put plainly: Antimicrobial activity of peptoids with altered cationic residues, MIC. In kind it is cell-based. Particulars: LB medium, 18 h. The method, then: as §1, §2, §3
A further series is described as follows: in vitro. In kind it is cell-based. Particulars: human. How it is done:
In order to determine whether the peptoids were cytotoxic against human cell lines, […] cell line (Korean Cell Line Bank) which is a human lung cell line was cultured in a DMEM (Dulbecco's modified Eagle's medium) culture solution containing 10% (v/v) fetal bovine serum (FBS) at 5% CO2 and a temperature of 37° C. 100 μL of DMEM medium was dispensed into each well of a 96-well microtiter plate so that the number of cells was 1.3×10^4, and then incubated overnight at a temperature of 37° C. in a 5% CO2 incubator. In this case, a DMEM medium was used as a negative control. Thereafter, the peptoid which is 2-fold serially diluted using sterile water was added to each well, and then incubated for 24 hours.
After incubation, 20 μL of an MTS solution [3-(4,5-dimethylthiazol-2-yl)-5-(3-carboxymethoxyphenyl)-2-(4-sulfophenyl)-2H-tetrazolium, inner salt; MTS] was added thereto and incubated at a temperature of 37° C. for 4 hours. Thereafter, % survival was calculated by measuring absorbance at a wavelength of 490 nm using an ELISA reader. The % survival was calculated as a percentage obtained by dividing the absorbance value for a well-treated with the peptoid by the absorbance value for a well containing control cells which had not been treated with the peptoid.

A further series concerns red blood cells. Put plainly: Hemolytic activity on red blood cells. It counts as cell-based, mouse. How it is done:
In order to identify, through red blood cell hemolytic activity in mice, whether the peptoids synthesized in Preparation Example 1 are cytotoxic, red blood cells isolated from 10 mL of mouse blood were washed three times with phosphate-buffered saline (PBS, mixed solution of 35 mM phosphate buffer/150 mM NaCl, pH 7.4), and then centrifuged at a centrifugal force of 1,000 ×g for 10 minutes. A 10% (v/v) red blood cell solution diluted with PBS was dispensed into a 96-well microtiter plate at 150 μL each, and then a peptide solution was added at 50 μL each. Thereafter, the 96-well microtiter plate was incubated at a temperature of 37° C. for 1 hour.
The incubated 96-well microtiter plate was centrifuged at a centrifugal force of 1,000×g for 5 minutes. Thereafter, supernatant was taken at 100 μL each and transferred to a new 96-well microtiter plate. Then, absorbance at a wavelength of 540 nm was measured (Table 6).
In this case, a value obtained in a case of being treated with 0.1% (v/v) Triton X-100 was set as 100% hemolysis, and hemolytic activity (degree of cell destruction) of the peptoids was calculated using the following Equation 1. In the Equation 1, A is absorbance of the peptoid solution at a wavelength of 540 nm, B is absorbance of 0.1% Triton X-100 at a wavelength of 540 nm, and C is absorbance of the PBS solution at a wavelength of 540 nm. In this case, Peptoid NO. […] Degree of cell destruction (% hemolysis)=(A−C)/(B−C)[…] [Equation 1]
In Table 6, HD10 means a peptoid concentration which causes 10% hemolysis of red blood cells, and HD50 means a peptoid concentration which causes 50% hemolysis of red blood cells. In addition, Hmax is a hemolysis rate (%) at 200 μM which is the highest peptoid concentration used in the experiment.
Hemolytic activity of Peptoid NOS. 1, 18 to 23, and the peptide Pexiganan was measured in the same manner as in Experimental Example 2.

≈ marks a conversion by molar mass, not a printed value. Non-standard residues stand in square brackets, D forms with d. Residues, ends and D or L forms follow the SMILES beside them. Nspe = C[C@H](NCC(=O)O)c1ccccc1; Nlys = NCCCCNCC(=O)O

The term CC50 denotes the concentration giving 50% cytotoxicity.

Regarding `C[C@@H](c1ccccc1)N(CC(N)=O)C(=O)CN(C(=O)CN(CCCCN)C(=O)CN(C(=O)CN(C(=O)CN(CCCCN)C(=O)CN(C(=O)CN(C(=O)CNCCCCN)[C@@H](C)c1ccccc1)[C@@H](C)c1ccccc1)[C@@H](C)c1ccccc1)[C@@H](C)c1ccccc1)[C@@H](C)c1ccccc1` [compound 18] (H-[Nlys][Nspe][Nspe][Nlys][Nspe][Nspe][Nlys][Nspe][Nspe]-NH2), the “MIC B. subtilis” value against B. subtilis is 1.6 µM (≈ 2.19 µg/mL). The “MIC E. coli” value against E. coli strain DH5α worked out at 3.1 µM (≈ 4.24 µg/mL). The molecule further displayed a CC50 at 24 h in “in vitro” of 40 µM.

In the series with red blood cells, `C[C@@H](c1ccc(Cl)cc1)N(CC(N)=O)C(=O)CN(C(=O)CN(CCCCN)C(=O)CN(C(=O)CN(C(=O)CN(CCCCN)C(=O)CN(C(=O)CN(C(=O)CN(CCCCN)C(=O)CN(C(=O)CN(C(=O)CNCCCCN)[C@@H](C)c1ccc(Cl)cc1)[C@@H](C)c1ccc(Cl)cc1)[C@@H](C)c1ccc(Cl)cc1)[C@@H](C)c1ccc(Cl)cc1)[C@@H](C)c1ccc(Cl)cc1)[C@@H](C)c1ccc(Cl)cc1)[C@@H](C)c1ccc(Cl)cc1` [compound 19] displayed an HD10 of less than 6.25 and an HD50 of 10.4. Also, the “MIC B. subtilis” value in the series on B. subtilis came out at 6.1 µM (≈ 12.8 µg/mL). For the same molecule, the “MIC E. coli” value against E. coli strain DH5α is more than 6.1 µM. For the same molecule, the midpoint of cytotoxicity in “in vitro”, the CC50 at 24 h, lay at 3 µM.

Take `Cc1ccc([C@H](C)N(CC(N)=O)C(=O)CN(C(=O)CN(CCCCN)C(=O)CN(C(=O)CN(C(=O)CN(CCCCN)C(=O)CN(C(=O)CN(C(=O)CN(CCCCN)C(=O)CN(C(=O)CN(C(=O)CNCCCCN)[C@@H](C)c2ccc(C)cc2)[C@@H](C)c2ccc(C)cc2)[C@@H](C)c2ccc(C)cc2)[C@@H](C)c2ccc(C)cc2)[C@@H](C)c2ccc(C)cc2)[C@@H](C)c2ccc(C)cc2)[C@@H](C)c2ccc(C)cc2)cc1` [compound 20]: in the series on red blood cells, the HD10 is reported as less than 6.25 and the HD50 is recorded as 8.3. The “MIC B. subtilis” value against B. subtilis came to 0.8 µM (≈ 1.55 µg/mL). Also, in the series on E. coli strain DH5α, the “MIC E. coli” value was more than 6.1 µM. Besides, in the series “in vitro”, the midpoint of cytotoxicity, the CC50 at 24 h, lay at 8 µM.

These data come from US10815275B2, “Antimicrobial peptoids with improved selectivity and use thereof” (priority 2018, dated 2020).
